Experimental data: patent US20030040476A1, “EAG gene” (priority 1999, published 2003)

Columns and labels:
hEAG2 channel [1] = assay: Modulation of hEAG2 current during progesterone-induced G2-M progression in Xenopus oocytes; assay type: cell-based, human; conditions: oocytes treated with 20 μg/ml progesterone while recording; homogenous at all voltages tested
Method: (§1) For Xenopus oocyte expression, the cDNA was cloned into a suitable vector containing the translation initiation sequences and the polyadenylation sequence of Xenopus b-globin. This optimizes the expression in oocytes. The template was prepared by linearization of the construct, and RNA was synthesized using the T7 promotor. The synthetic RNA was injected into stage V-VI oocytes using standard techniques (approximately 50 ng/oocyte). The currents expressed were then measured 48-96 hours after the injection using two-electrode voltage clamp.
The modulation of hEAG2 during cell cycle was determined using the natural cell cycle arrest of oocytes in the G2 stage of the first meiotic division. The progression of the cycle through the G2-M boundary is triggered by progesterone. We have treated the oocytes with 20 μg/ml progesterone while recording the hEAG2 currents. […] Importantly, the reduction was homogenous at all voltages tested (as opposite to what happens with EAG1).

hEAG2 channel [2] = target: T1, hEAG2 channel (Homo sapiens, UniProt Q8NCM2); assay: Magnesium dependence of hEAG2 activation, two-electrode voltage clamp in Xenopus oocytes; assay type: cell-based
T1 construct: expressed in transfected cells; host or cells: Xenopus oocytes (stage V-VI), injected with synthetic RNA
T1 sequence (Q8NCM2 1-988): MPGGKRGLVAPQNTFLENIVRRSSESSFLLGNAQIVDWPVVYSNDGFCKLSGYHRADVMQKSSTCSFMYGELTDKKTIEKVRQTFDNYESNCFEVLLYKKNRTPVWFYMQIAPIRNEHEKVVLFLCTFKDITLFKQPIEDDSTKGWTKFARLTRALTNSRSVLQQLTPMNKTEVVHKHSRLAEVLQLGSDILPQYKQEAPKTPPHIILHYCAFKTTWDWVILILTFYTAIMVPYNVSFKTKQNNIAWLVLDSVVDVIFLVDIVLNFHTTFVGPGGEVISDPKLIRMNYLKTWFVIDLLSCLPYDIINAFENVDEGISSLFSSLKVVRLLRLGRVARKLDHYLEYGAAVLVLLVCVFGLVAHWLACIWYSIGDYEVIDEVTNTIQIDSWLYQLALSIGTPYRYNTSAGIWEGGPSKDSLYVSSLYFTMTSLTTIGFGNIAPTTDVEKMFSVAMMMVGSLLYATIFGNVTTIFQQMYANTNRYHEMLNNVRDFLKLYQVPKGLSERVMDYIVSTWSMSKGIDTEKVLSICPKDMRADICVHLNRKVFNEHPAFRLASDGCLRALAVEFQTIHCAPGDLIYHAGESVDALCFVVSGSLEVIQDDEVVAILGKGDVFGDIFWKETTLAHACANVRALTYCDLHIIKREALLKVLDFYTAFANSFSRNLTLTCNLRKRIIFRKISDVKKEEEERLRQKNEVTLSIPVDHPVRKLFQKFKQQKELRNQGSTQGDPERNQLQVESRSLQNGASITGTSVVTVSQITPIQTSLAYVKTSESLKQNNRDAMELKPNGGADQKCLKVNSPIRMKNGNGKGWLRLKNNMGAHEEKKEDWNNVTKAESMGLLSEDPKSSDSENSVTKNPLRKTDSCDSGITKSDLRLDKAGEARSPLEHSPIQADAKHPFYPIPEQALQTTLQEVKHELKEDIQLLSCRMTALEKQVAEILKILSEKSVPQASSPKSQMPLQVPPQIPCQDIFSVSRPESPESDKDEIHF
Method: as §1
The depencence on the holding potential of the time constant of activation was determined using a conditioning potential between −150 and −60 mV during 5 s prior to the test pulse. The time required to achieve 80% of the maximal amplitude in the test pulse was then plotted against the conditioned potential, and fitted with a Boltzmann distribution. Extracellular magnesium is known to slow down the activation of EAG1. We determined the magnesium dependence of hEAG2 using the protocol descibed above in the presence of different external magnesium concentrations. The value of Vhalf obtained from the fit was plotted against the magnesium concentration, giving a semimaximal effect of extracellular magnesium at 80 μM (FIG. 7).

Structure (SMILES)	effect on hEAG2 current amplitude (hEAG2 channel [1])	EC50 (hEAG2 channel [2]; hEAG2 in Xenopus oocytes, conditioning potential -150 to -60 mV for 5 s before test pulse, extracellular magnesium, read-out: apparent EC50 for the effect of magnesium (Vhalf of activation time versus Mg^2+ concentration)) [µM]	slowing of activation in 2 mM Mg^2+ versus 200 μM Mg^2+ (hEAG2 channel [2]; prepulse potential -60 mV, 2 mM versus 200 μM Mg^2+)
CC(=O)[C@H]1CC[C@H]2[C@@H]3CCC4=CC(=O)CC[C@]4(C)[C@H]3CC[C@]12C [progesterone]	reduction of the current with time	–	–
[Mg+2] [magnesium]	–	80	three times slower
